Our source for the IC50, Activity and inhibition values is ChEMBL document CHEMBL3804794, “Design, synthesis and biological evaluation of pyrazol-furan carboxamide analogues as novel Akt kinase inhibitors” (Eur J Med Chem, 2016).

Data set [1] in a line: Antiproliferative activity against human HCT116 cells after 72 hrs by SRB assay. Format: functional, cell-based. As to conditions: HCT-116, 72 h.
The target in data set [2] is T1, RAC-alpha serine/threonine-protein kinase (Homo sapiens, UniProt P31749). Kind of data set: Inhibition of Akt1 (unknown origin) expressed in Escherichia coli using peptide substrate after 1 hr by HTRF assay.
The nature of data set [3]: Antiproliferative activity against human OVCAR8 cells after 72 hrs by SRB assay. Format: functional, cell-based. The settings on record: OVCAR-8, 72 h.
Data set [4] is described as follows: Inhibition of PKA (unknown origin) after 60 mins by Z-LYTE kinase assay. Also on record: species or system Homo sapiens.
Data set [5] deals with T2, Testis-specific serine/threonine-protein kinase 1 (Mus musculus, UniProt Q61241).
T2 sequence (Q61241 whole entry): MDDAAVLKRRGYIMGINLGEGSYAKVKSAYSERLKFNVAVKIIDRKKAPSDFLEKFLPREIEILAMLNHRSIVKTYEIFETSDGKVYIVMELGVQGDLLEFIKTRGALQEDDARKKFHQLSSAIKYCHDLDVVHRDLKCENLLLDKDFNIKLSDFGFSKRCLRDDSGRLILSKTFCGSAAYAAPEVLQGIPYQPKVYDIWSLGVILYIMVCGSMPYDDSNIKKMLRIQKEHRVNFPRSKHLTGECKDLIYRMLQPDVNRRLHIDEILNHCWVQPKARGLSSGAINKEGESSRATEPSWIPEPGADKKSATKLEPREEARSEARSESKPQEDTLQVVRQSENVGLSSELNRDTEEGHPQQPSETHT
The data set can be described thus: Inhibition of mouse TSSK1 by luminescent ADP-Glo assay kit.

Data set [6] in a line: Effect on total GSK3beta levels in human PC3 cells at 1 to 10 uM after 3 hrs by western blot analysis. It is filed as ADME, cell-based. As to conditions: pc-3, 3 h.
Data set [7] in a line: Effect on total GAPDH levels in human PC3 cells at 1 to 10 uM after 3 hrs by western blot analysis. Format: ADME, cell-based. The settings on record: pc-3, 3 h.
The nature of data set [8]: Inhibition of Akt in human PTEN-null LNCAP cells assessed as suppression in PRAS40 phosphorylation after 1 hr by ELISA analysis. Format: cell-based.
The nature of data set [9]: Effect on total Akt levels in human PC3 cells at 1 to 10 uM after 3 hrs by western blot analysis. The settings on record: pc-3, 3 h. It is filed as ADME, cell-based.
The target of data set [10] is T1, RAC-alpha serine/threonine-protein kinase. The data set can be described thus: Inhibition of Akt1 (unknown origin) expressed in Escherichia coli at 1 ug/ml using peptide substrate after 1 hr by HTRF assay.

T1 sequence (P31749 whole entry): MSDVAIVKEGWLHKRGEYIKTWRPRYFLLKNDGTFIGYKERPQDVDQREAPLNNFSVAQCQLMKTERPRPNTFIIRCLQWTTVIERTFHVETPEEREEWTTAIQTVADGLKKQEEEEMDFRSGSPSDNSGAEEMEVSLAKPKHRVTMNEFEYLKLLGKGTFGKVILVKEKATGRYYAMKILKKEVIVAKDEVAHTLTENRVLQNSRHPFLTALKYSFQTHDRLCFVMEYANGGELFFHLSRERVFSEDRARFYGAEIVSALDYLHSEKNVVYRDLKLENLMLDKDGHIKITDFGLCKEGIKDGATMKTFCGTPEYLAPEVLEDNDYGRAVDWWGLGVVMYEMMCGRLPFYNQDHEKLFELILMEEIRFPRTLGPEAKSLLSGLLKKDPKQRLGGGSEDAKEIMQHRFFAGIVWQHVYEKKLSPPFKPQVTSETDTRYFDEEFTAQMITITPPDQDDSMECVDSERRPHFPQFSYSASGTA

As to `Cn1nccc1-c1csc(C(=O)NC2(c3ccc(F)cc3)CCNCC2)c1`, the values for the IC50 in data set [1], in [2] and in [3] were 24.8 µM, 0.92 µM and 14.3 µM, respectively.

Turning to `Cn1ncc(Cl)c1-c1ccc(C(=O)NC2(c3ccc(Cl)c(Cl)c3)CCNCC2)cc1`, the IC50 in [1] is 11.9 µM; in [2], 1.91 µM; in [3], 5.21 µM.

For the compound `Cn1nccc1-c1csc(C(=O)NC2(c3ccc(Cl)c(Cl)c3)CCNCC2)c1`, the results for the IC50 in data set [1], in [2] and in [3] were 3.92 µM, 0.071 µM and 1.61 µM, respectively.

As for `Cn1ncc(Cl)c1-c1cc(C(=O)NC2(c3ccc(F)cc3)CCNCC2)oc1Cl`, the IC50 in [1] came to 6.47 µM; in [2], 0.39 µM; in data set [3] it was 4.81 µM.

In the case of `CN[C@@H]1C[C@H]2O[C@@](C)([C@@H]1OC)n1c3ccccc3c3c4c(c5c6ccccc6n2c5c31)C(=O)NC4` [STAUROSPORINE], the IC50 in data set [4] came to 0.0082 µM; in data set [5], 0.00033 µM.

Consider `Cn1ncc(Br)c1-c1coc(C(=O)NC2(c3ccc(Cl)c(Cl)c3)CCNCC2)c1`, for which the values for the IC50 in data set [1], in data set [2] and in data set [3] were 4 µM, 0.44 µM and 3.77 µM, respectively.

In the case of `Cn1ncc(Cl)c1-c1cc(C(=O)NC2(c3ccc(Cl)c(Cl)c3)CCNCC2)oc1Cl`, the IC50 in data set [1] amounted to 7.76 µM; in [2], 0.061 µM; in data set [8] it was 0.0304 µM; in data set [3] it was 9.76 µM. In addition, the Activity result in data set [6], in [7] and in data set [9] was “Non-toxic” in each case.

On to `Cn1ncc(Cl)c1-c1cc(C(=O)N[C@H](CN)Cc2ccc(F)c(F)c2)oc1Cl` [UPROSERTIB], for which, in [8], the IC50 worked out at 0.0756 µM.

Turning to `Cn1ncc(Br)c1-c1cc(C(=O)NC2(c3ccc(Cl)c(Cl)c3)CCNCC2)n(C)c1Br`, the IC50 in [1] worked out at 7.75 µM; in data set [3] it was 4.7 µM. Moreover, the inhibition in [10] came out at 30.3%.

With `Cn1ncc(Cl)c1-c1coc(C(=O)NC2(c3ccc(F)cc3)CCNCC2)c1`, the IC50 was determined as 10.1 µM in [1], 0.92 µM in data set [2] and 6.46 µM in [3].

Turning to `Cn1ncc(Br)c1-c1ccc(C(=O)NC2(c3ccc(Cl)c(Cl)c3)CCNCC2)cc1`, the values for the IC50 in data set [1], in [2] and in [3] were 11 µM, 1.4 µM and 1.96 µM, respectively.

Consider `Cn1ncc(Cl)c1-c1c(Cl)c(C(=O)NC2(c3ccc(Cl)c(Cl)c3)CCNCC2)n(C)c1Cl`, for which the figures for the IC50 in data set [1], in [2] and in data set [3] were 9.28 µM, 0.85 µM and 1.77 µM, respectively.

As for `Cn1cc(-c2c(Br)cnn2C)cc1C(=O)NC1(c2ccc(Cl)c(Cl)c2)CCNCC1`, the IC50 in data set [1] was determined as 12.9 µM; in [2] it was 1.26 µM; in data set [3] it was 2.83 µM.

As to `Cn1ncc(Br)c1-c1oc(C(=O)NC2(c3ccc(Cl)c(Cl)c3)CCNCC2)cc1Br`, the values for the IC50 in data set [1] and in [3] were 16.4 µM and 5.81 µM, respectively. In data set [10], the inhibition came to 43.5%.

`Cn1ncc(Cl)c1-c1csc(C(=O)NC2(c3ccc(F)cc3)CCNCC2)c1`: the IC50 stood at 18.3 µM in [1], 0.32 µM in [2] and 8.19 µM in data set [3].

Turning to `Cn1ncc(Cl)c1-c1oc(C(=O)NC2(c3ccc(Cl)c(Cl)c3)CCNCC2)cc1Br`, the IC50 in data set [1] worked out at 6.97 µM; in [2], 1.48 µM; in data set [3], 5.95 µM.

For `Cn1nccc1-c1oc(C(=O)NC2(c3ccc(Cl)c(Cl)c3)CCNCC2)cc1Br`, the values for the IC50 in data set [1] and in data set [3] were 24.8 µM and 6.87 µM, respectively. This compound also displayed an inhibition in [10] of 49.4%.

Take `Cn1ncc(Br)c1-c1csc(C(=O)NC2(c3ccc(F)cc3)CCNCC2)c1`: the values for the IC50 in [1], in [2] and in data set [3] were 17.5 µM, 0.36 µM and 7.78 µM, respectively.

Turning to `Cn1ncc(Br)c1-c1coc(C(=O)NC2(c3ccc(F)cc3)CCNCC2)c1`, the IC50 in [1] worked out at 18.1 µM; in [2], 2.02 µM; in data set [3], 20.1 µM.

On to `NC1(C(=O)N[C@@H](CCO)c2ccc(Cl)cc2)CCN(c2nc[nH]c3nccc2-3)CC1` [CAPIVASERTIB], for which the IC50 in data set [1] came to 5.2 µM; in [8], 0.337 µM; in data set [3] it was 7.27 µM.
